Measurements published in ChEMBL document CHEMBL5550154, “Novel biaryloxazolidinone derivatives with broad-spectrum antibacterial activity, favorable drug-like profiles and in vivo efficacy against linezolid-resistant Staphylococcusaureus” (Eur J Med Chem, 2024).
pIC50: −log10 of the molar value. Converted amounts (≈) assume the structure as drawn.

Tests used:
[1] = test system: Staphylococcus aureus; test: Antibacterial activity against Staphylococcus aureus ATCC29213 assessed as inhibition of bacterial growth incubated for 16 to 20 hrs by CLSI based broth liquid microdilution method; assay type: functional; conditions: time 16-20 hrs
[2] = test system: Staphylococcus aureus; test: Antibacterial activity against methicillin-resistant Staphylococcus aureus assessed as inhibition of bacterial growth incubated for 16 to 20 hrs by CLSI based broth liquid microdilution method; assay type: functional; conditions: time 16-20 hrs
[3] = test system: Staphylococcus aureus; test: Antibacterial activity against linezolid-resistant Staphylococcus aureus assessed as inhibition of bacterial growth incubated for 16 to 20 hrs by CLSI based broth liquid microdilution method; assay type: functional; conditions: time 16-20 hrs
[4] = test system: Enterococcus faecalis; test: Antibacterial activity against linezolid-resistant Enterococcus faecalis assessed as inhibition of bacterial growth incubated for 16 to 20 hrs by CLSI based broth liquid microdilution method; assay type: functional; conditions: time 16-20 hrs
[5] = Microsomal stability in human liver microsomes assessed as elimination half life pretreated with compound upto 60 mins followed by NADPH addition and measured after 60 mins by LC/MS analysis; assay type: ADME, Microsome; conditions: liver microsomes, time < 120 min, read-out: beta t1/2
[6] = Microsomal stability in human liver microsomes assessed as intrinsic clearance pretreated with compound upto 60 mins followed by NADPH addition and measured after 60 mins by LC/MS analysis; assay type: ADME, Microsome; conditions: time < 120 min, read-out: CLH
[7] = Microsomal stability in monkey liver microsomes assessed as intrinsic clearance pretreated with compound upto 60 mins followed by NADPH addition and measured after 60 mins by LC/MS analysis; assay type: ADME, Macaca mulatta, Microsome; conditions: rhesus monkey, time < 120 min, read-out: CLH
[8] = Microsomal stability in dog liver microsomes assessed as intrinsic clearance pretreated with compound upto 60 mins followed by NADPH addition and measured after 60 mins by LC/MS analysis; assay type: ADME, Canis lupus familiaris, Microsome; conditions: microsomes, 2 h, time < 120 min
[9] = Microsomal stability in rat liver microsomes assessed as intrinsic clearance pretreated with compound upto 60 mins followed by NADPH addition and measured after 60 mins by LC/MS analysis; assay type: ADME, Microsome; conditions: time < 120 min, read-out: CLH
[10] = Microsomal stability in mouse liver microsomes assessed as intrinsic clearance pretreated with compound upto 60 mins followed by NADPH addition and measured after 60 mins by LC/MS analysis; assay type: ADME, Microsome; conditions: time < 120 min, read-out: CLH
[11] = Microsomal stability in monkey liver microsomes assessed as parent compound remaining pretreated with compound upto 60 mins followed by NADPH addition and measured after 60 mins by LC/MS analysis; assay type: ADME, Macaca mulatta, Microsome; conditions: rhesus monkey, time < 120 min, read-out: Stability
[12] = Microsomal stability in rat liver microsomes assessed as parent compound remaining pretreated with compound upto 60 mins followed by NADPH addition and measured after 60 mins by LC/MS analysis; assay type: ADME, Microsome; conditions: liver microsomes, time < 120 min, read-out: Stability
[13] = Microsomal stability in mouse liver microsomes assessed as parent compound remaining pretreated with compound upto 60 mins followed by NADPH addition and measured after 60 mins by LC/MS analysis; assay type: ADME, Microsome; conditions: liver microsomes, time < 120 min, read-out: Stability
[14] = Stability in rat plasma assessed as parent compound remaining at 37 degreeC measured upto 60 mins by HPLC analysis; assay type: ADME, cell-free; conditions: read-out: Stability
[15] = Stability in monkey plasma assessed as parent compound remaining at 25 degreeC measured upto 60 mins by HPLC analysis; assay type: ADME, cell-free, Macaca mulatta; conditions: rhesus monkey, 1 h
[16] = Stability in mouse plasma assessed as parent compound remaining at 25 degreeC measured upto 60 mins by HPLC analysis; assay type: ADME, cell-free; conditions: 1 h
[17] = Plasma protein binding in human incubated for 6 hrs by LC-MS/MS analysis; assay type: ADME, cell-free; conditions: read-out: PPB (converted)
[18] = Plasma protein binding in monkey incubated for 6 hrs by LC-MS/MS analysis; assay type: ADME, cell-free, Macaca mulatta; conditions: rhesus monkey, read-out: PPB (converted)
[19] = Plasma protein binding in dog incubated for 6 hrs by LC-MS/MS analysis; assay type: ADME, cell-free, Canis lupus familiaris; conditions: read-out: PPB (converted)
[20] = Plasma protein binding in rat incubated for 6 hrs by LC-MS/MS analysis; assay type: ADME, cell-free; conditions: read-out: PPB (converted)
[21] = Aqueous solubility of compound at pH 2 by LC-MS/MS analysis; assay type: physicochemical; conditions: buffer
[22] = Aqueous solubility of compound at pH 7.4 by LC-MS/MS analysis; assay type: physicochemical; conditions: buffer
[23] = AUC (0 to t) in Sprague-Dawley rat at 1 mg/kg, iv measured upto 24 hrs by LC-MS analysis; assay type: ADME, organism-based; conditions: in vivo
[24] = Apparent volume of distribution in Sprague-Dawley rat at 1 mg/kg, iv measured upto 24 hrs by LC-MS analysis; assay type: ADME, organism-based; conditions: in vivo, read-out: Vz
[25] = Elimination half life in Sprague-Dawley rat at 10 mg/kg, IG measured upto 24 hrs by LC-MS analysis; assay type: ADME, organism-based; conditions: in vivo, po, read-out: beta t1/2 (converted)
[26] = Tmax in Sprague-Dawley rat at 10 mg/kg, IG measured upto 24 hrs by LC-MS analysis; assay type: ADME, organism-based; conditions: in vivo, po
[27] = Cmax in Sprague-Dawley rat at 10 mg/kg, IG measured upto 24 hrs by LC-MS analysis; assay type: ADME, organism-based; conditions: in vivo, po
[28] = AUC (0 to t) in Sprague-Dawley rat at 10 mg/kg, IG measured upto 24 hrs by LC-MS analysis; assay type: ADME, organism-based; conditions: in vivo, po
[29] = Bioavailability in Sprague-Dawley rat at 10 mg/kg, IG measured upto 24 hrs by LC-MS analysis; assay type: ADME, organism-based; conditions: in vivo, po
[30] = Cytotoxicity against human HepG2 cells incubated for 48 hrs by MTT assay; assay type: toxicity, cell-based
[31] = target: Cytochrome P450 2C9 (Homo sapiens, UniProt P11712); test: Inhibition of CYP2C9 in human liver microsomes using […] preincubated with compound for 5 mins followed by substrate addition and measured after 120 mins in presence of NADPH by LC-MS/MS analysis; assay type: ADME, Microsome
Cytochrome P450 2C9, sequence (P11712 whole entry): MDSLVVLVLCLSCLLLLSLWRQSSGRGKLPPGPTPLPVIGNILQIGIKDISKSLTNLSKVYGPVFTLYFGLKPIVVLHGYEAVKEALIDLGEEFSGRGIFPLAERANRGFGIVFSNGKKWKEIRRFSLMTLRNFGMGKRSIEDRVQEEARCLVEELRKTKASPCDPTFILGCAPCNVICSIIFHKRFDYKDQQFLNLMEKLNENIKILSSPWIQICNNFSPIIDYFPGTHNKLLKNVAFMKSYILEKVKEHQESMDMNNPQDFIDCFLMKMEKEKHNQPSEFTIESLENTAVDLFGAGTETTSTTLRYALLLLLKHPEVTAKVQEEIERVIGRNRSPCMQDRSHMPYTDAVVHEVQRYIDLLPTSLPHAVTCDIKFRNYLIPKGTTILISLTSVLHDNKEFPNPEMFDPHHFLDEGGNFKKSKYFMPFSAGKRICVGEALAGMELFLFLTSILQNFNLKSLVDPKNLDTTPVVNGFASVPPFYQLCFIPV

[32] = target: Cytochrome P450 2C19 (Homo sapiens, UniProt P33261); test: Inhibition of CYP2C19 in human liver microsomes […] preincubated with compound for 5 mins followed by substrate addition and measured after 120 mins in presence of NADPH by LC-MS/MS analysis; assay type: ADME, Microsome
Cytochrome P450 2C19, sequence (P33261 whole entry): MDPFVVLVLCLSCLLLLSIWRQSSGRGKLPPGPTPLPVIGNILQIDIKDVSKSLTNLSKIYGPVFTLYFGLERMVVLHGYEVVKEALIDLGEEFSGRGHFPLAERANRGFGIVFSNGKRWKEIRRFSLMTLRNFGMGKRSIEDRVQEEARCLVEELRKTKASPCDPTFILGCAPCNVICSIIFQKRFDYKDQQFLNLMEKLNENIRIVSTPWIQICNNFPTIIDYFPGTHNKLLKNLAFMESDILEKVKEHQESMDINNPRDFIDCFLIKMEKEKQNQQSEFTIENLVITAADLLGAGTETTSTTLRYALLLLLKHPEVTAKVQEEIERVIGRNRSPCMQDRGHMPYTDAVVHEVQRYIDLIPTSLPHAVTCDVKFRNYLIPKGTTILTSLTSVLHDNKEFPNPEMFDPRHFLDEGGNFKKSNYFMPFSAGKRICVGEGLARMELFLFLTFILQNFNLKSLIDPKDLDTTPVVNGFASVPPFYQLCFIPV

[33] = target: Cytochrome P450 2D6 (Homo sapiens, UniProt P10635); test: Inhibition of CYP2D6 in human liver microsomes […] preincubated with compound for 5 mins followed by substrate addition and measured after 120 mins in presence of NADPH by LC-MS/MS analysis; assay type: ADME, Microsome
Cytochrome P450 2D6, sequence (P10635 whole entry): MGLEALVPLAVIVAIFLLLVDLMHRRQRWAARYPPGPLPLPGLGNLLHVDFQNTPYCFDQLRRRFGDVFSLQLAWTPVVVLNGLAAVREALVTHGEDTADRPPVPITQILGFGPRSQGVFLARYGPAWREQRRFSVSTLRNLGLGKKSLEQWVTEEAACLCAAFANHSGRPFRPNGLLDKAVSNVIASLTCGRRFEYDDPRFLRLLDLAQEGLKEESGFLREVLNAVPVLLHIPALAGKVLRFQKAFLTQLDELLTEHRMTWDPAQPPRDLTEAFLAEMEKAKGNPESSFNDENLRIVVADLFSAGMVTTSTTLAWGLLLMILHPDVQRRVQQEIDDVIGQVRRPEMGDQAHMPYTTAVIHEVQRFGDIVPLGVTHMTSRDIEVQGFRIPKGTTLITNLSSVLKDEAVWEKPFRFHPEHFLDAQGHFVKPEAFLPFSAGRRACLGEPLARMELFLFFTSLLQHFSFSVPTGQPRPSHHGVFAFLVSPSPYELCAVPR

Structure (SMILES): O=C1O[C@@H](CO)CN1c1ccc(-c2ccc(/C=N/N3CCS(=O)(=O)CC3)nc2)c(F)c1
- MIC [1]: 0.25 µg/mL (≈ 0.557 µM)
- MIC [2]: 0.25 µg/mL (≈ 0.557 µM)
- MIC [3]: 0.25 µg/mL (≈ 0.557 µM)
- MIC [4]: 0.5 µg/mL (≈ 1.11 µM)
- half-life [5]: 15.3 h
- microsomal CLint [6]: 1.51 µL/min/mg
- microsomal CLint [7]: 2.39 µL/min/mg
- CLH [8]: 0.804 µL/min/mg
- microsomal CLint [9]: 2.07 µL/min/mg
- microsomal CLint [10]: 1.07 µL/min/mg
- remaining at 2 h [11]: 98.8%
- remaining at 2 h [12]: 92.8%
- remaining at 2 h [13]: 96%
- remaining at 1 h [14]: 106%
- Stability [15]: 144%
- Stability [16]: 133%
- fraction unbound at 6 h [17]: 0.223
- fraction unbound at 6 h [18]: 0.284
- fraction unbound at 6 h [19]: 0.275
- fraction unbound at 6 h [20]: 0.096
- solubility [21]: 72.2 µM (≈ 32.4 µg/mL)
- solubility [22]: 20 µM (≈ 8.97 µg/mL)
- AUC(0-t) at 24 h [23]: 1120 ng·h/mL
- Vd [24]: 0.73 L/kg
- half-life [25]: 4.28 h
- Tmax [26]: 0.42 h
- Cmax [27]: 597 ng/mL
- AUC(0-t) at 24 h [28]: 2120 ng·h/mL
- bioavailability [29]: 19.8%
- IC50 at 48 h [30]: > 30 µM
- pIC50 [31]: < 4.52
- pIC50 [32]: < 4.52
- pIC50 [33]: < 4.52
